Source: patent US20240166652A1, “MODULATORS OF THE INTEGRATED STRESS PATHWAY” (Calico Life Sciences LLC, priority 2017, published 2024)

system: ATF4 luciferase reporter in HEK293T cells; test: ATF4-Luc assay (ATF4 luciferase reporter, tunicamycin-treated HEK293T cells); type: cell-based, human; details: Homo sapiens, HEK-293T; HEK293T cells carrying the ATF4 luciferase reporter, 1 μg/mL tunicamycin, 7 hours

SMILES | EC50 [nM]
O=C(COc1ccc(Cl)c(F)c1)NC12CCC(NC(=O)COc3ccc(Cl)c(F)c3)(CC1)[C@@H](C(=O)O)C2 [Compound 558, (2S)-1,4-bis[2-(4-chloro-3-fluorophenoxy)acetamido]bicyclo[2.2.2]octane-2-carboxylic Acid] | 500 to 2000
O=C(COc1ccc(Cl)c(F)c1)NC12CCC(NC(=O)COc3ccc(F)c(Cl)c3)(C1)C2 [Compound 535, 2-(3-chloro-4-fluorophenoxy)-N-{4-[2-(4-chloro-3-fluorophenoxy)acetamido]bicyclo[2.1.1]hexan-1-yl}acetamide] | 10 to 50
O=C(COc1ccc(Cl)c(F)c1)NC12CC(NCCCOc3ccc(Cl)c(F)c3)(C1)C2 [Compound 705, 2-(4-chloro-3-fluorophenoxy)-N-(3-{[3-(4-chloro-3-fluorophenoxy)propyl]amino}bicyclo[1.1.1]pentan-1-yl)acetamide] | 10 to 50
COC1CC2(NC(=O)COc3ccc(Cl)c(F)c3)CCC1(NC(=O)COc1ccc(Cl)c(F)c1)CC2 (centres unmarked) [Compound 299, N,N′-(2-methoxybicyclo[2.2.2]octane-1,4-diyl)bis[2-(4-chloro-3-fluorophenoxy)acetamide]] | 10 to 50
O=C(COc1ccc(Cl)c(F)c1)NC12CC(NCC(O)c3ccc(Cl)c(F)c3)(C1)C2 (centres unmarked) [Compound 292, 2-(4-chloro-3-fluorophenoxy)-N-(3-{[2-(4-chloro-3-fluorophenyl)-2-hydroxyethyl]amino}bicyclo[1.1.1]pentan-1-yl)acetamide] | 500 to 2000
O=C(COc1ccc2c(c1)OC(F)(F)O2)NC12CCC(NC(=O)COc3ccc(Cl)cc3)(CC1)[C@@H](O)C2 [Compound 799, 2-(4-chlorophenoxy)-N-[(2S)-4-{2-[(2,2-difluoro-2H-1,3-benzodioxol-5-yl)oxy]acetamido}-2-hydroxybicyclo[2.2.2]octan-1-yl]acetamide] | < 10
O=C(COc1ccc(F)cc1)NC12CCC(NC(=O)COc3ccc(Cl)c(F)c3)(CC1)[C@@H](O)C2 [Compound 619, 2-(4-chloro-3-fluorophenoxy)-N-{(2S)-4-[2-(4-fluorophenoxy)acetamido]-2-hydroxybicyclo[2.2.2]octan-1-yl}acetamide] | < 10
CCc1cc(C)cc(OCC(=O)NC23CCC(NC(=O)COc4ccc(Cl)c(F)c4)(CC2)C[C@@H]3O)c1 [Compound 494, 2-(4-chloro-3-fluorophenoxy)-N-{(3S)-4-[2-(3-ethyl-5-methylphenoxy)acetamido]-3-hydroxybicyclo[2.2.2]octan-1-yl}acetamide] | 250 to 500
O=C(COc1ccc(Cl)c(F)c1)NC12CCC(NC(=O)Cc3ccc(OC(F)(F)F)cc3)(CC1)C(O)C2 (centres unmarked) [Compound 326, 2-(4-chloro-3-fluorophenoxy)-N-(3-hydroxy-4-{2-[4-(trifluoromethoxy)phenyl]acetamido}bicyclo[2.2.2]octan-1-yl)acetamide] | 50 to 250
O=C(COc1ccc(Cl)c(F)c1)NC12CC(NC(=O)COc3ccc4cn[nH]c4c3)(C1)C2 [Compound 108, 2-(4-chloro-3-fluorophenoxy)-N-(3-{2-[(1H-indazol-6-yl)oxy]acetamido}-bicyclo[1.1.1]pentan-1-yl)acetamide] | 10 to 50
O=C(COc1ccc(Cl)c(F)c1)NC12CCC(NC(=O)COc3ccc(Cl)c(F)c3)(CC1)C(NCCO)C2 (centres unmarked) [Compound 707, N,N′-{2-[(2-hydroxyethyl)amino]bicyclo[2.2.2]octane-1,4-diyl}bis[2-(4-chloro-3-fluorophenoxy)acetamide]] | < 10
COC(=O)c1cc(OCC(=O)NC23CC(NC(=O)COc4ccc(Cl)c(F)c4)(C2)C3)ccc1Cl [Compound 223, methyl 2-chloro-5-[2-({3-[2-(4-chloro-3-fluorophenoxy)acetamido]-bicyclo[1.1.1]pentan-1-yl}amino)-2-oxoethoxy]benzoate] | 500 to 2000
Cc1cnc(OCC(=O)NC23CCC(NC(=O)COc4ccc(Cl)c(F)c4)(CC2)[C@@H](O)C3)s1 [Compound 575, 2-(4-chloro-3-fluorophenoxy)-N-[(2S)-2-hydroxy-4-{2-[(5-methyl-1,3-thiazol-2-yl)oxy]acetamido}bicyclo[2.2.2]octan-1-yl]acetamide] | > 2000
Cc1ccc(OCC(=O)NC23CC(NC(=O)COc4ccc(Cl)c(F)c4)(C2)C3)cn1 [Compound 206, 2-(4-chloro-3-fluorophenoxy)-N-(3-{2-[(6-methylpyridin-3-yl)oxy]acetamido}bicyclo[1.1.1]pentan-1-yl)acetamide] | 50 to 250
O=C(COCCc1cccc(F)c1)NC12CC(NC(=O)COc3ccc(Cl)c(F)c3)(C1)C2 [Compound 132, 2-(4-chloro-3-fluorophenoxy)-N-(3-{2-[2-(3-fluorophenyl)ethoxy]acetamido}-bicyclo[1.1.1]pentan-1-yl)acetamide] | 50 to 250
CC(=O)O[C@H]1CC2(NC(=O)COc3ccc(Cl)c(F)c3)CCC1(NC(=O)COc1ccc(Cl)c(F)c1)CC2 [Compound 445, (2S)-1,4-bis[2-(4-chloro-3-fluorophenoxy)acetamido]bicyclo[2.2.2]octan-2-yl acetate] | < 10

SMILES | EC50 [nM]
Cc1ccccc1CS(=O)(=O)NC12CC(NC(=O)COc3ccc(Cl)c(F)c3)(C1)C2 [Compound 482, 2-(4-chloro-3-fluorophenoxy)-N-(3-{[(2-methylphenyl)methanesulfonyl]amino}bicyclo[1.1.1]pentan-1-yl)acetamide] | > 2000
Cc1ccc(OCC(=O)NC23CC(NC(=O)COc4ccc(Cl)cc4)(C2)C3)cc1 [Compound 115, 2-(4-chlorophenoxy)-N-{3-[2-(4-methylphenoxy)acetamido]bicyclo-[1.1.1]pentan-1-yl}acetamide] | 50 to 250
O=C(COc1ccc(F)c(F)c1)NC12CCC(NC(=O)COc3ccc(F)cc3)(CC1)[C@@H](O)C2 [Compound 811, 2-(3,4-difluorophenoxy)-N-{(3S)-4-[2-(4-fluorophenoxy)acetamido]-3-hydroxybicyclo[2.2.2]octan-1-yl}acetamide] | < 10
O=C(COc1ccc(F)c(F)c1)NC12CC(NC(=O)COc3ccc(F)c(F)c3)(C1)C2 [Compound 185, N,N′-(bicyclo[1.1.1]pentane-1,3-diyl)bis[2-(3,4-difluorophenoxy)acetamide]] | 10 to 50
O=C(COCc1ccc(Cl)cc1)NC12CC(NC(=O)COc3ccc(Cl)c(Cl)c3)(C1)C2 [Compound 156, 2-[(4-chlorophenyl)methoxy]-N-{3-[2-(3,4-dichlorophenoxy)acetamido]-bicyclo[1.1.1]pentan-1-yl}acetamide] | 10 to 50
O=C(COc1ccc(OC(F)(F)F)cc1)NC12CCC(NC(=O)COc3ccc(Cl)c(F)c3)(CC1)[C@@H](O)C2 [Compound 473, 2-(4-chloro-3-fluorophenoxy)-N-[(2S)-2-hydroxy-4-{2-[4-(trifluoromethoxy)phenoxy]acetamido}bicyclo[2.2.2]octan-1-yl]acetamide] | < 10
COCc1cc(OCC(=O)NC23CCC(NC(=O)COc4ccc(Cl)c(F)c4)(CC2)[C@@H](O)C3)ccc1Cl [Compound 757, 2-(4-chloro-3-fluorophenoxy)-N-[(2S)-4-{2-[4-chloro-3-(methoxymethyl)phenoxy]acetamido}-2-hydroxybicyclo[2.2.2]octan-1-yl]acetamide] | 10 to 50
Cc1ccc(COCC(=O)NC23CC(NC(=O)COc4ccc(Cl)c(F)c4)(C2)C3)cc1 [Compound 144, 2-(4-chloro-3-fluorophenoxy)-N-(3-{2-[(4-methylphenyl)methoxy]acetamido}-bicyclo[1.1.1]pentan-1-yl)acetamide] | 250 to 500
O=C(COc1ccc(Cl)c(CO)c1)NC12CCC(NC(=O)COc3ccc(Cl)c(F)c3)(CC1)[C@@H](O)C2 [Compound 598, 2-(4-chloro-3-fluorophenoxy)-N-[(2S)-4-{2-[4-chloro-3-(hydroxymethyl)phenoxy]acetamido}-2-hydroxybicyclo[2.2.2]octan-1-yl]acetamide] | < 10
COc1cc(OCC(=O)NC23CCC(NC(=O)COc4ccc(F)c(F)c4)(CC2)C[C@@H]3O)ccc1F [Compound 770, 2-(3,4-difluorophenoxy)-N-{(3S)-4-[2-(4-fluoro-3-methoxyphenoxy)acetamido]-3-hydroxybicyclo[2.2.2]octan-1-yl}acetamide] | < 10
O=C(COc1ccc(Cl)c(F)c1)NC12CCC(NC(=O)COc3ccon3)(CC1)[C@@H](O)C2 [Compound 639, 2-(4-chloro-3-fluorophenoxy)-N-[(3S)-3-hydroxy-4-{2-[(1,2-oxazol-3-yl)oxy]acetamido}bicyclo[2.2.2]octan-1-yl]acetamide] | 50 to 250
O=C(COc1ccc(Cl)c(F)c1)NC12CCC(NC(=O)COc3ccc(F)c(F)c3)(CC1)[C@@H](O)C2 [Compound 587, 2-(4-chloro-3-fluorophenoxy)-N-{(3S)-4-[2-(3,4-difluorophenoxy)acetamido]-3-hydroxybicyclo[2.2.2]octan-1-yl}acetamide] | < 10
O=C(COc1ccc(Cl)c(Cl)c1)NC12CCC(NC(=O)COc3ccc(Cl)c(Cl)c3)(CC1)[C@@H](O)C2 [Compound 538, N,N′-[(2S)-2-hydroxybicyclo[2.2.2]octane-1,4-diyl]bis[2-(3,4-dichlorophenoxy)acetamide]] | < 10
Cc1ccc(OCC(=O)NC23CCC(NC(=O)COc4ccc(OC(F)(F)F)cc4)(CC2)[C@@H](O)C3)cc1F [Compound 736, 2-(3-fluoro-4-methylphenoxy)-N-[(3S)-3-hydroxy-4-{2-[4-(trifluoromethoxy)phenoxy]acetamido}bicyclo[2.2.2]octan-1-yl]acetamide] | < 10
Cc1ccc(OCC(=O)NC23CCC(NC(=O)COc4ccc(F)cc4)(CC2)[C@@H](O)C3)cc1F [Compound 731, 2-(3-fluoro-4-methylphenoxy)-N-{(3S)-4-[2-(4-fluorophenoxy)acetamido]-3-hydroxybicyclo[2.2.2]octan-1-yl}acetamide] | < 10
CCCN1C(=O)C2(NC(=O)COc3ccc(Cl)c(F)c3)CCC1(NC(=O)COc1ccc(Cl)c(F)c1)CC2 [Compound 677, N,N′-(3-oxo-2-propyl-2-azabicyclo[2.2.2]octane-1,4-diyl)bis[2-(4-chloro-3-fluorophenoxy)acetamide]] | 500 to 2000
